1 molecule from article PMC4057681, “Antenna-Specific Glutathione S-Transferase in Male Silkmoth Bombyx mori” (International Journal of Molecular Sciences, 2014) can be followed below.

SMILES strings stand for the structures.

In general, Km refers to the concentration of substrate that gives half-maximal velocity.

This assay concerns T1, BmGSTD4.
T1 construct: 245 aa precursor; signal peptide (22 aa) and the first two mature residues (Gly, Pro) removed; p28 vector (from pET28a), nickel column, E. coli Rosetta (DE3); about 26 kDa on SDS-PAGE; mature calculated 25,518 Da; by translation of printed primers: precursor begins MLTASVLG, construct begins (M)KKLVAPIK, C-terminus FINKDDE
The assay is described as follows: spectrophotometric GSH conjugation at […] nm, steady-state kinetics. The conditions noted are these: 1 mM GSH, 0.1 M phosphate buffer pH 6.5. Format: biochemical, Bombyx mori.

For the molecule `O=[N+]([O-])c1ccc(Cl)c([N+](=O)[O-])c1` [CDNB, 1-chloro-2,4-dinitrobenzene], the Km was 20 µM.
